Experimental data as given in US9597310B2, “Indanyloxydihydrobenzofuranylacetic acids” (Boehringer Ingelheim International GmbH, priority 2012, dated 2017).

What follows are compounds tested against human GPR40 receptor (Homo sapiens (Human), UniProt O14842) (assay: IP1 accumulation measurements using the IPOne assay system). Details: 1321N1 cells stably expressing human GPR40 receptor, 1 h stimulation.
Assay type: cell-based
Method: IP1 accumulation measurements using the IPOne assay system—1321N1 cells stably expressing human GPR40 receptor (Euroscreen, Belgium) are seeded 24 h before the assay in white 384-well plates in culture medium containing 10% FCS, 1% Na-Pyruvate and 400 μg/mL G418. IP1 is assayed according to the manufacturer's description (Cisbio Bioassays, France). In brief, the assay is started by substitution of the culture medium by stimulation buffer (Hepes 10 mM, CaCl2 1 mM, MgCl2 0.5 mM, KCl 4.2 mM, NaCl 146 mM, glucose 5.5 mM and LiCl 50 mM, pH 7.4). Cells are stimulated for 1 h at 37° C., 5% CO2 by addition of the compounds that are diluted in stimulation buffer containing LiCl. Assays are stopped by adding HTRF-conjugates (IP1-d2 and Anti-IP1 cryptate Tb) and lysis buffer, provided by the manufacturer. After an incubation time of 1 h at room temperature plates are measured using an EnVision™, Perkin Elmer. The obtained fluorescence ratios at 665/615 […] are then used to calculate the pEC50 values using Assay Explorer 3.3 Software (Accelrys, Inc.) by interpolation using an IP1 reference curve and subsequent sigmoidal curve fitting allowing for a variable hill slope.

human GPR40 receptor, sequence (O14842 whole entry): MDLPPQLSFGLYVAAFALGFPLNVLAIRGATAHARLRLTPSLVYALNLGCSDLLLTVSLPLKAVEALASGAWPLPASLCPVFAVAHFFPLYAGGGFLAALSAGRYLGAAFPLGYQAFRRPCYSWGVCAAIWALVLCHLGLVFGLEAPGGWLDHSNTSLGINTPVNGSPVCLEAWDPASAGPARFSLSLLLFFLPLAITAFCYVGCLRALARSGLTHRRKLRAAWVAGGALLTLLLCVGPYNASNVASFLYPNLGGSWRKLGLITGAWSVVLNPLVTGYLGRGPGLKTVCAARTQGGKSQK

Row | SMILES | EC50
1 | CC(C)(O)CCCc1ccc(C#N)c(Oc2ccc(F)c3c2CC[C@H]3Oc2ccc3c(c2)OC[C@H]3CC(=O)O)c1 [Example 41, ((S)-6-{(R)-4-[2-Cyano-5-(4-hydroxy-4-methylpentyl)phenoxy]-7-fluoro-indan-1-yloxy}-2,3-dihydrobenzofuran-3-yl)-acetic acid] | 85 nM
2 | O=C(O)C[C@@H]1COc2cc(O[C@@H]3CCc4c(Oc5ccc6c(c5)OCO6)ccc(F)c43)ccc21 [Example 25, {(S)-6-[(R)-4-(Benzo[d][1,3]dioxol-5-yloxy)-7-fluoro-indan-1-yloxy]-2,3-dihydrobenzofuran-3-yl}-acetic acid] | 6 nM
3 | O=C(O)C[C@@H]1COc2cc(O[C@@H]3CCc4c(Oc5ccc(-c6nccs6)cc5)ccc(F)c43)ccc21 [Example 21, {(S)-6-[(R)-7-Fluoro-4-(4-thiazol-2-yl-phenoxy)-indan-1-yloxy]-2,3-dihydro-benzofuran-3-yl}-acetic acid] | 6 nM
4 | O=C(O)C[C@@H]1COc2cc(O[C@@H]3CCc4c(Oc5ccnc(O[C@H]6CCOC6)c5)ccc(F)c43)ccc21 [Example 16, {(S)-6-[(R)-7-fluoro-4-{2-[(S)-tetrahydro-furan-3-yloxy]-pyridin-4-yloxy}-indan-1-yloxy]-2,3-dihydro-benzofuran-3-yl}-acetic acid] | 9 nM
5 | CC(C)(O)COc1cc(Oc2ccc(F)c3c2CC[C@H]3Oc2ccc3c(c2)OC[C@H]3CC(=O)O)ccc1C#N [Example 52, ((S)-6-{(R)-4-[4-Cyano-3-(2-hydroxy-2-methylproproxy)phenoxy]-7-fluoro-indan-1-yloxy}-2,3-dihydrobenzofuran-3-yl)-acetic acid] | 31 nM
6 | O=C(O)C[C@@H]1COc2cc(O[C@@H]3CCc4c(Oc5ccc(OC6CCOCC6)cc5F)ccc(F)c43)ccc21 [Example 50, ((S)-6-{(R)-7-Fluoro-4-[2-fluoro-4-(tetrahydro-2H-pyran-4-yloxy)phenoxy]-indan-1-yloxy}-2,3-dihydrobenzofuran-3-yl)-acetic acid] | 4 nM
7 | CS(=O)(=O)CCCOc1ccc(Oc2ccc(F)c3c2CC[C@H]3Oc2ccc3c(c2)OC[C@H]3CC(=O)O)cc1 [Example 4, [(S)-6-{(R)-7-Fluoro-4-[4-(3-methanesulfonyl-propoxy)-phenoxy]-indan-1-yloxy}-2,3-dihydro-benzofuran-3-yl)-acetic acid] | 15 nM
8 | CN(C)C(=O)c1ccc(Oc2ccc(F)c3c2CC[C@H]3Oc2ccc3c(c2)OC[C@H]3CC(=O)O)cc1 [Example 63, ((S)-6-{(R)-4-[4-(Dimethylcarbamoyl)phenoxy]-7-fluoro-indan-1-yloxy}-2,3-dihydrobenzofuran-3-yl)-acetic acid] | 22 nM
9 | CC(C)(O)CCc1ccc(Oc2ccc(F)c3c2CC[C@H]3Oc2ccc3c(c2)OC[C@H]3CC(=O)O)c(C#N)c1 [Example 62, ((S)-6-{(R)-4-[2-Cyano-4-(3-hydroxy-3-methylbutyl)phenoxy]-7-fluoro-indan-1-yloxy}-2,3-dihydrobenzofuran-3-yl)-acetic acid] | 12 nM
10 | Cc1nc(-c2ccc(Oc3ccc(F)c4c3CC[C@H]4Oc3ccc4c(c3)OC[C@H]4CC(=O)O)cc2)cs1 [Example 32, ((S)-6-{(R)-7-Fluoro-4-[4-(2-methylthiazol-4-yl)phenoxy]-indan-1-yloxy}-2,3-dihydrobenzofuran-3-yl)-acetic acid] | 13 nM
11 | CC(C)(O)CCOc1ccc(Oc2ccc(F)c3c2CC[C@H]3Oc2ccc3c(c2)OC[C@H]3CC(=O)O)nc1 [Example 17, [(S)-6-{(R)-7-Fluoro-4-[5-(3-hydroxy-3-methyl-butoxy)-pyridin-2-yloxy]-indan-1-yloxy}-2,3-dihydro-benzofuran-3-yl]-acetic acid] | 23 nM
12 | N#CCCc1ccc(Oc2ccc(F)c3c2CC[C@H]3Oc2ccc3c(c2)OC[C@H]3CC(=O)O)cc1 [Example 61, ((S)-6-{(R)-4-[4-(2-Cyanoethyl)phenoxy]-7-fluoro-indan-1-yloxy}-2,3-dihydrobenzofuran-3-yl)-acetic acid] | 13 nM
13 | O=C(O)C[C@@H]1COc2cc(O[C@@H]3CCc4c(Oc5ccc(N6CCCC6=O)cc5)ccc(F)c43)ccc21 [Example 58, ((S)-6-{(R)-7-Fluoro-4-[4-(2-oxopyrrolidin-1-yl)phenoxy]-indan-1-yloxy}-2,3-dihydrobenzofuran-3-yl)-acetic acid] | 18 nM
14 | Cn1nnc(-c2ccc(Oc3ccc(F)c4c3CC[C@H]4Oc3ccc4c(c3)OC[C@H]4CC(=O)O)cc2)n1 [Example 15, [(S)-6-{(R)-7-Fluoro-4-[4-(2-methyl-2H-tetrazol-5-yl)-phenoxy]-indan-1-yloxy}-2,3-dihydro-benzofuran-3-yl]-acetic acid] | 3 nM
15 | CC(C)(O)CCOc1ccc(Oc2ccc(F)c3c2CC[C@H]3Oc2ccc3c(c2)OC[C@H]3CC(=O)O)c(C#N)c1 [Example 47, ((S)-6-{(R)-4-[2-Cyano-4-(3-hydroxy-3-methylbutoxy)phenoxy]-7-fluoro-indan-1-yloxy}-2,3-dihydrobenzofuran-3-yl)-acetic acid] | 8 nM
16 | N#Cc1cc(CN2CCOCC2)ccc1Oc1ccc(F)c2c1CC[C@H]2Oc1ccc2c(c1)OC[C@H]2CC(=O)O [Example 70, ((S)-6-{(R)-4-[2-Cyano-4-(morpholin-4-ylmethyl)phenoxy]-7-fluoro-indan-1-yloxy}-2,3-dihydrobenzofuran-3-yl)-acetic acid] | 44 nM
17 | CC(C)(O)CCOc1ccc(C#N)c(Oc2ccc(F)c3c2CC[C@H]3Oc2ccc3c(c2)OC[C@H]3CC(=O)O)c1 [Example 42, ((S)-6-{(R)-4-[2-Cyano-5-(3-hydroxy-3-methylbutoxy)-phenoxy]-7-fluoro-indan-1-yloxy}-2,3-dihydrobenzofuran-3-yl)-acetic acid] | 120 nM
18 | CC(C)(O)Cn1cc(-c2c(F)cc(Oc3ccc(F)c4c3CC[C@H]4Oc3ccc4c(c3)OC[C@H]4CC(=O)O)cc2F)cn1 [Example 20, {(S)-6-[(R)-4-{3,5-Difluoro-4-[1-(2-hydroxy-2-methyl-propyl)-1H-pyrazol-4-yl]-phenoxy}-7-fluoro-indan-1-yloxy]-2,3-dihydro-benzofuran-3-yl}-acetic acid] | 7 nM
19 | CC(C)(O)CCn1ncc2ccc(Oc3ccc(F)c4c3CC[C@H]4Oc3ccc4c(c3)OC[C@H]4CC(=O)O)cc21 [Example 36, ((S)-6-{(R)-7-Fluoro-4-[1-(3-hydroxy-3-methylbutyl)-1H-indazol-6-yloxy]-indan-1-yloxy}-2,3-dihydrobenzofuran-3-yl)-acetic acid] | 8 nM
20 | CC(C)(O)Cn1cc(-c2cc(F)c(Oc3ccc(F)c4c3CC[C@H]4Oc3ccc4c(c3)OC[C@H]4CC(=O)O)cc2F)cn1 [Example 29, [(S)-6-((R)-4-{2,5-Difluoro-4-[1-(2-hydroxy-2-methylpropyl)-1H-pyrazol-4-yl]phenoxy}-7-fluoro-indan-1-yloxy)-2,3-dihydrobenzofuran-3-yl]-acetic acid] | 12 nM
21 | N#CCc1ccc(Oc2ccc(F)c3c2CC[C@H]3Oc2ccc3c(c2)OC[C@H]3CC(=O)O)cc1 [Example 60, ((S)-6-{(R)-4-[4-(Cyanomethyl)phenoxy]-7-fluoro-indan-1-yloxy}-2,3-dihydrobenzofuran-3-yl)-acetic acid] | 20 nM
22 | Cn1nnnc1-c1ccc(Oc2ccc(F)c3c2CC[C@H]3Oc2ccc3c(c2)OC[C@H]3CC(=O)O)cc1 [Example 14, [(S)-6-{(R)-7-Fluoro-4-[4-(1-methyl-1H-tetrazol-5-yl)-phenoxy]-indan-1-yloxy}-2,3-dihydro-benzofuran-3-yl]-acetic acid] | 23 nM
23 | CC(C)(O)CCCc1ccc(Oc2ccc(F)c3c2CC[C@H]3Oc2ccc3c(c2)OC[C@H]3CC(=O)O)c(C#N)c1 [Example 56, ((S)-6-{(R)-4-[2-Cyano-4-(4-hydroxy-4-methylpentyl)phenoxy]-7-fluoro-indan-1-yloxy}-2,3-dihydrobenzofuran-3-yl)-acetic acid] | 38 nM
24 | O=C(O)C[C@@H]1COc2cc(O[C@@H]3CCc4c(Oc5cc(OC6CCOCC6)ccc5F)ccc(F)c43)ccc21 [Example 46, ((S)-6-{(R)-7-Fluoro-4-[2-fluoro-5-(tetrahydro-2H-pyran-4-yloxy)phenoxy]-indan-1-yloxy}-2,3-dihydrobenzofuran-3-yl)-acetic acid] | 62 nM
25 | N#Cc1ccc(Oc2ccc(F)c3c2CC[C@H]3Oc2ccc3c(c2)OC[C@H]3CC(=O)O)cc1OC1CCOCC1 [Example 51, ((S)-6-{(R)-4-[4-Cyano-3-(tetrahydro-2H-pyran-4-yloxy)phenoxy]-7-fluoro-indan-1-yloxy}-2,3-dihydrobenzofuran-3-yl)-acetic acid] | 29 nM
26 | O=C(O)C[C@@H]1COc2cc(O[C@@H]3CCc4c(Oc5ccc(C(=O)N6CCOCC6)cc5)ccc(F)c43)ccc21 [Example 64, ((S)-6-{(R)-7-Fluoro-4-[4-(morpholine-4-carbonyl)phenoxy]-indan-1-yloxy}-2,3-dihydrobenzofuran-3-yl)-acetic acid] | 27 nM
27 | CC(C)(O)Cn1cc(-c2cc(F)c(Oc3ccc(F)c4c3CC[C@H]4Oc3ccc4c(c3)OC[C@H]4CC(=O)O)c(F)c2)cn1 [Example 31, [(S)-6-((R)-4-{2,6-Difluoro-4-[1-(2-hydroxy-2-methylpropyl)-1H-pyrazol-4-yl]phenoxy}-7-fluoro-indan-1-yloxy)-2,3-dihydrobenzofuran-3-yl]-acetic acid] | 58 nM
